Non-standard residues stand in square brackets, D forms with d. Residues, ends and D or L forms follow the SMILES beside them.
Target: T1, αvβ6 Rezeptor (Homo sapiens, UniProt P06756+P18564)
T1 construct: Die Immobilisierung von löslichem αvβ6 Rezeptor auf Microtiterplatten
Experiment: αvβ6 / fibronectin receptor binding test (competition of peptide with biotinylated fibronectin on immobilised integrin, ELISA read-out)
Settings: for -log Q / Q (IC50[Substanz] / IC50[EMD 271293]): peptides Cyclo-(Arg-Gly-Asp-Leu-D-Asp-Ala-Leu-Arg-R^1), labelled by R^1; for -log Q: Q = IC50[Substanz] / IC50[EMD 271293]; for Q (IC50[Substanz] / IC50[EMD 271293]): ratio to comparison compound EMD 271293; for Q-Wert = IC50 Testpeptid / IC50 EMD 271293: standard Ac-RTDLDSLR-NH2, Q values of repeated experiments averaged
Text: αvβ6 / Fibronektin Rezeptorbindungstest:
Die hergestellten erfindungsgemäßen Peptide wurden in Lösung zusammen mit kompetetiv wirkenden Fibronektin an den immobiliserten αvβ6 Rezeptor gebunden und der Q-Wert als Maß für die Selektivität der Bindung des zu testenden Peptids an αvβ6 ermittelt. Der Q-Wert berechnet sich dabei aus dem Quotienten der IC50-Werte von Testpeptid und einem Standard. Als Standard diente das lineare Ac-RTDLDSLR-NH2 (Code EMD 271293) (Lit./Patent vgl Pytela et al. Science 231, 1559, (1986)). Der Bindungstest wurde im einzelnen wie folgt durchgeführt: • Die Immobilisierung von löslichem αvβ6 Rezeptor auf Microtiterplatten erfolgte durch Verdünnung der Proteinlösung in TBS++ und anschliessender Inkubation über Nacht bei 4°C (100 µl/Vertiefung). Unspezifische • Bindungsstellen wurden durch Inkubation (2 h, 37°C) mit 3% (w/v) BSA in TBS++ (200 µl/Vertiefung) blockiert. Überschüssiges BSA wurde durch dreimaliges Waschen mit TBSA++ entfernt. Peptide wurden seriell (1:10) in TBSA++ verdünnt und zusammen mit biotinyliertem Fibronektin (2 µg/ ml) mit dem immobilisierten Integrin inkubiert (50 µl Peptid + 50 µl Ligand pro Vertiefung; 2 h; 37°C). Nicht gebundenes Fibronektin und Peptide wurden durch dreimaliges Waschen mit TBSA++ entfernt. Die Detektion des gebundenen Fibronektin erfolgte durch Inkubation (1 h; 37 °C) mit einem alkalische-Phosphatase-gekoppelten anti-Biotin-Antikörper (Biorad) (1:20000 in TBSA++; 100 µl/Vertiefung). Nach dreimaligem Waschen mit TBSA++ erfolgte die kolorimetrische Detektion durch Inkubation (10-15 min; 25°C, im Dunkeln) mit Substratlösung (5 mg Nitrophenylphosphat, 1 ml Ethanolamin, 4 ml H2O; 100 µl/Vertiefung). Die Enzymreaktion wurde durch Zugabe von 0,4 M NaOH (100 µl/Vertiefung) gestoppt. Die Farbintensität wurde bei 405 nm im ELISA-Meßgerät bestimmt und gegen den Nullwert abgeglichen. Als Nullwert dienten Vertiefungen, die nicht mit Rezeptor beschichtet waren. Als Standard wurde Ac-RTDLDSLR-NH2 eingesetzt. Die IC50-Werte für die getesteten Peptide wurden aus einer Graphik abgelesen und daraus zusammen mit dem IC50-Wert des Standardpeptids der Q-Wert des erfindungsgemäßen Peptids ermittelt. Q-Wert = IC50 Testpeptid/IC50 Standard [formula] Q-Werte aus Versuchswiederholungen wurden gemittelt.

[1] = biotinylated fibronectin 2 µg/ml

T1 sequence (P06756 31-992 limits assumed): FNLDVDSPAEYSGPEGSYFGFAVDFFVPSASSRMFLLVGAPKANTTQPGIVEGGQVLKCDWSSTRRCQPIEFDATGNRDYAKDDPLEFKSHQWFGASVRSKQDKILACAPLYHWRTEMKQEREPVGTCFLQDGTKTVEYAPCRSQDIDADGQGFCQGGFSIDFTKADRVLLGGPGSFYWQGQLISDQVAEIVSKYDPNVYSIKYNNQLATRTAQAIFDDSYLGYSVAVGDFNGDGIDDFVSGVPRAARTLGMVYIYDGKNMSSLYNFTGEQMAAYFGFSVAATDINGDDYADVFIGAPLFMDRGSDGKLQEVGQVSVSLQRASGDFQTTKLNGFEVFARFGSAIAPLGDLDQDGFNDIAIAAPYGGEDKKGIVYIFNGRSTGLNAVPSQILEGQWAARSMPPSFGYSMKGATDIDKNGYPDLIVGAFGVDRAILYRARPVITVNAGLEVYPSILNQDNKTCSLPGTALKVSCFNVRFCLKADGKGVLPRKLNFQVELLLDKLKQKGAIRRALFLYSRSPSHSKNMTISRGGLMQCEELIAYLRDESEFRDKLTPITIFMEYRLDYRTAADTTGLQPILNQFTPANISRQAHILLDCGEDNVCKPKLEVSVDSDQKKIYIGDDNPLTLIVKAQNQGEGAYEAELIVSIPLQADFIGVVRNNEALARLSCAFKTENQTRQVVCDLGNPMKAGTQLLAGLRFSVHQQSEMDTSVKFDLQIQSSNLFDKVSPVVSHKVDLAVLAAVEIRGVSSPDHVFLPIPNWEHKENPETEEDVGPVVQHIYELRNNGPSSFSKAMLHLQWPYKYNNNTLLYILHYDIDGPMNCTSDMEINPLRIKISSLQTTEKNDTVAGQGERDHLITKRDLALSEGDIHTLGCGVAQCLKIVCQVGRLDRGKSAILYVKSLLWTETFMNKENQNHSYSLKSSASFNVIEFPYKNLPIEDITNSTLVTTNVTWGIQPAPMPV
T1 sequence (P18564 22-709 limits assumed): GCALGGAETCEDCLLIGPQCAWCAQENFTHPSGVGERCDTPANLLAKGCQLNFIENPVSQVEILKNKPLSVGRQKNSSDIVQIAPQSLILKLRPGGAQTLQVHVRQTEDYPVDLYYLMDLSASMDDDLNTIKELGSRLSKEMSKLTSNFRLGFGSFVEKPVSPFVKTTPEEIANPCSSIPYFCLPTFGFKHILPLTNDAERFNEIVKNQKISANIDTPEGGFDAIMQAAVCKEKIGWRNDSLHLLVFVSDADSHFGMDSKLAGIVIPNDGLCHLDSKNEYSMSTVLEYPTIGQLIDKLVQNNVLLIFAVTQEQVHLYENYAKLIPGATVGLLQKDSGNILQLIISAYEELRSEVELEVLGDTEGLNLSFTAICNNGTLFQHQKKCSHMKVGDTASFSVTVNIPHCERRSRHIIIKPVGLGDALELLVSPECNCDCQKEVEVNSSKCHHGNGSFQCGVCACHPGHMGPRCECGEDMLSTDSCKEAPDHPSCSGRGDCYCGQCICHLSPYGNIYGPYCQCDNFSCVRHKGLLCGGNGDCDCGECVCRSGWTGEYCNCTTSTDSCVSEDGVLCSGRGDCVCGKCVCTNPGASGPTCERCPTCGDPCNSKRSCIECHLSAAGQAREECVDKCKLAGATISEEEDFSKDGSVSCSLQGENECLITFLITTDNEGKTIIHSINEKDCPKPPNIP

Molecule	-log Q	Q (IC50[Substanz] / IC50[EMD 271293])	IC50 (IC50 of the standard peptide, printed in brackets beside its Q value, biotinylated fibronectin 2 µg/ml)	Q-Wert = IC50 Testpeptid / IC50 EMD 271293 [1]
CC(C)C[C@@H]1NC(=O)[C@H](C)NC(=O)[C@@H](CC(=O)O)NC(=O)[C@H](CC(C)C)NC(=O)[C@H](CC(=O)O)NC(=O)CNC(=O)[C@H](CCCNC(=N)N)NC(=O)CNC(=O)[C@H](CCCNC(=N)N)NC1=O [EMD 271591, cyclo-(RGDLdALRG)] (cyclo(RGDL[dD]ALRG))	-0,322	2,1	–	–
CC(C)C[C@@H]1NC(=O)[C@H](C)NC(=O)[C@@H](CC(=O)O)NC(=O)[C@H](CC(C)C)NC(=O)[C@H](CC(=O)O)NC(=O)CNC(=O)[C@H](CCCNC(=N)N)NC(=O)CNC(=O)CNC(=O)[C@H](CCCNC(=N)N)NC1=O [EMD 271592, cyclo-(RGDLdALRGG)] (cyclo(RGDL[dD]ALRGG))	1,301	0,05	–	–
CC(C)C[C@@H]1NC(=O)[C@H](C)NC(=O)[C@@H](CC(=O)O)NC(=O)[C@H](CC(C)C)NC(=O)[C@H](CC(=O)O)NC(=O)CNC(=O)[C@H](CCCNC(=N)N)NC(=O)CNC(=O)CNC(=O)CNC(=O)[C@H](CCCNC(=N)N)NC1=O [EMD 271593] (cyclo(RGDL[dD]ALRGGG))	1,523	0,03	–	–
CC(C)C[C@@H]1NC(=O)[C@H](C)NC(=O)[C@@H](CC(=O)O)NC(=O)[C@H](CC(C)C)NC(=O)[C@H](CC(=O)O)NC(=O)CNC(=O)[C@H](CCCNC(=N)N)NC(=O)CNC(=O)CNC(=O)CNC(=O)CNC(=O)CNC(=O)CNC(=O)[C@H](CCCNC(=N)N)NC1=O [EMD 271594, cyclo-(RGDLdALRGGGGGG)] (cyclo(RGDL[dD]ALRGGGGGG))	1,301	0,05	–	–
CC(C)C[C@@H]1NC(=O)[C@H](C)NC(=O)[C@@H](CC(=O)O)NC(=O)[C@H](CC(C)C)NC(=O)[C@H](CC(=O)O)NC(=O)CNC(=O)[C@H](CCCNC(=N)N)NC(=O)CNC(=O)CNC(=O)CNC(=O)CNC(=O)[C@H](CCCNC(=N)N)NC1=O [EMD 272961, cyclo-(RGDLdALRGGGG)] (cyclo(RGDL[dD]ALRGGGG))	1,481	0,033	–	–
CC(C)C[C@@H]1NC(=O)[C@H](C)NC(=O)[C@@H](CC(=O)O)NC(=O)[C@H](CC(C)C)NC(=O)[C@H](CC(=O)O)NC(=O)CNC(=O)[C@H](CCCNC(=N)N)NC(=O)CNC(=O)CNC(=O)CNC(=O)CNC(=O)CNC(=O)[C@H](CCCNC(=N)N)NC1=O [EMD 272962, cyclo-(RGDLdALRGGGGG)] (cyclo(RGDL[dD]ALRGGGGG))	1,337	0,046	–	–
CC(=O)N[C@@H](CCCNC(=N)N)C(=O)N[C@H](C(=O)N[C@@H](CC(=O)O)C(=O)N[C@@H](CC(C)C)C(=O)N[C@@H](CC(=O)O)C(=O)N[C@@H](CO)C(=O)N[C@@H](CC(C)C)C(=O)N[C@@H](CCCNC(=N)N)C(N)=O)[C@@H](C)O [compound 271293] (Ac-RTDLDSLR-NH2)	–	–	75 nM	1,00
CC(C)C[C@@H]1NC(=O)[C@H](C)NC(=O)[C@@H](CC(=O)O)NC(=O)[C@H](CC(C)C)NC(=O)[C@H](CC(=O)O)NC(=O)CNC(=O)[C@H](CCCNC(=N)N)NC(=O)CNC(=O)[C@H](CCCNC(=N)N)NC1=O [compound 271591] (cyclo(RGDL[dD]ALRG))	–	–	–	2,1
CC(C)C[C@@H]1NC(=O)[C@H](C)NC(=O)[C@@H](CC(=O)O)NC(=O)[C@H](CC(C)C)NC(=O)[C@H](CC(=O)O)NC(=O)CNC(=O)[C@H](CCCNC(=N)N)NC(=O)CNC(=O)CNC(=O)[C@H](CCCNC(=N)N)NC1=O [compound 271592] (cyclo(RGDL[dD]ALRGG))	–	–	–	0,05
CC(C)C[C@@H]1NC(=O)[C@H](C)NC(=O)[C@@H](CC(=O)O)NC(=O)[C@H](CC(C)C)NC(=O)[C@H](CC(=O)O)NC(=O)CNC(=O)[C@H](CCCNC(=N)N)NC(=O)CNC(=O)CNC(=O)CNC(=O)[C@H](CCCNC(=N)N)NC1=O [compound 271593] (cyclo(RGDL[dD]ALRGGG))	–	–	–	0,03
CC(C)C[C@@H]1NC(=O)[C@H](C)NC(=O)[C@@H](CC(=O)O)NC(=O)[C@H](CC(C)C)NC(=O)[C@H](CC(=O)O)NC(=O)CNC(=O)[C@H](CCCNC(=N)N)NC(=O)CNC(=O)CNC(=O)CNC(=O)CNC(=O)CNC(=O)CNC(=O)[C@H](CCCNC(=N)N)NC1=O [compound 271594] (cyclo(RGDL[dD]ALRGGGGGG))	–	–	–	0,05
CC(C)C[C@@H]1NC(=O)[C@H](C)NC(=O)[C@@H](CC(=O)O)NC(=O)[C@H](CC(C)C)NC(=O)[C@H](CC(=O)O)NC(=O)CNC(=O)[C@H](CCCNC(=N)N)NC(=O)CNC(=O)CNC(=O)CNC(=O)CNC(=O)[C@H](CCCNC(=N)N)NC1=O [compound 272961] (cyclo(RGDL[dD]ALRGGGG))	–	–	–	0,033
CC(C)C[C@@H]1NC(=O)[C@H](C)NC(=O)[C@@H](CC(=O)O)NC(=O)[C@H](CC(C)C)NC(=O)[C@H](CC(=O)O)NC(=O)CNC(=O)[C@H](CCCNC(=N)N)NC(=O)CNC(=O)CNC(=O)CNC(=O)CNC(=O)CNC(=O)[C@H](CCCNC(=N)N)NC1=O [compound 272962] (cyclo(RGDL[dD]ALRGGGGG))	–	–	–	0,046
cyclo-(RGDLdALR-Abu) [EMD 273035]	1,553	0,028	–	–
cyclo-(RGDLdALR-Abu-Abu) [EMD 272914]	1,523	0,03	–	–
cyclo-(RGDLdALR-Aha) [EMD 272959]	1,444	0,036	–	–
cyclo-(RGDLdALR-Aha-Aha) [EMD 272958]	1,444	0,036	–	–

Reference: patent publication EP1196433B1, “CYCLIC PEPTIDE DERIVATIVES AS INHIBITORS OF INTEGRIN ALPHA v BETA 6” (Merck Patent GmbH, priority 1999, dated 2001)
